According to patent publication US6750228B1, “Aromatic sulfone hydroxamic acid metalloprotease inhibitor” (priority 1997, dated 2004):

Columns and labels:
MMP-13 = target: T1, MMP-13 (Homo sapiens, UniProt P45452); assay: biochemical; conditions: recombinant human MMP-13, MCA peptide substrate 4 μM, pH 7.5, room temperature; read-out: MMP-13 IC50
T1 construct: made in house; host or cells: baculovirus / insect cells
Summary of the method: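 APMA- or trypsin-activated enzymes were preincubated with inhibitor for 5 min at room temperature, then the fluorogenic substrate MCA-Pro-Leu-Gly-Leu-Dpa-Ala-Arg-NH2 was added to a final 4 μM.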

MMP-1 = target: T2, MMP-1 (Homo sapiens, UniProt P03956); assay: biochemical; conditions: recombinant human MMP-1, MCA peptide substrate 4 μM, pH 7.5, room temperature; read-out: MMP-1 IC50
T2 construct: made in house; host or cells: transfected HT-1080 cells (provided by Dr. Harold Welgus, Washington University)
T2 sequence (P03956 100-469): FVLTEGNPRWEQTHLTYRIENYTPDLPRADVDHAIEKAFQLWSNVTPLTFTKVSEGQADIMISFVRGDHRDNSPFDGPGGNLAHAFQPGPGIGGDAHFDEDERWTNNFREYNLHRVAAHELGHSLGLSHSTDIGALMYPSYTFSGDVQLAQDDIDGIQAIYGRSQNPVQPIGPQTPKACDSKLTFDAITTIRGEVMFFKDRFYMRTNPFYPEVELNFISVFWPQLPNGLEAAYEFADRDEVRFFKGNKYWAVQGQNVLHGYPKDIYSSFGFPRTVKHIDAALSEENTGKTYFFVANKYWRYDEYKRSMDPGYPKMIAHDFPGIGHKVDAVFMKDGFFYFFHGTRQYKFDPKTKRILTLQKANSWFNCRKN
Summary of the method: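 Substrate MCA-PLGL-Dpa-AR-NH2 at 4 μM final; pH 7.5 Tris/NaCl/CaCl2 buffer with 0.05% polyethyleneglycol lauryl ether, 1% DMSO, room temperature. MMP-1 was expressed in transfected HT-1080 cells and APMA-activated.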

MMP-2 = target: T3, MMP-2 (Homo sapiens, UniProt P08253); assay: biochemical; conditions: recombinant human MMP-2, MCA peptide substrate 4 μM, pH 7.5, room temperature; read-out: MMP-2 IC50
T3 construct: made in house; provided by Dr. Gregory Goldberg, Washington University
T3 sequence (P08253 110-660): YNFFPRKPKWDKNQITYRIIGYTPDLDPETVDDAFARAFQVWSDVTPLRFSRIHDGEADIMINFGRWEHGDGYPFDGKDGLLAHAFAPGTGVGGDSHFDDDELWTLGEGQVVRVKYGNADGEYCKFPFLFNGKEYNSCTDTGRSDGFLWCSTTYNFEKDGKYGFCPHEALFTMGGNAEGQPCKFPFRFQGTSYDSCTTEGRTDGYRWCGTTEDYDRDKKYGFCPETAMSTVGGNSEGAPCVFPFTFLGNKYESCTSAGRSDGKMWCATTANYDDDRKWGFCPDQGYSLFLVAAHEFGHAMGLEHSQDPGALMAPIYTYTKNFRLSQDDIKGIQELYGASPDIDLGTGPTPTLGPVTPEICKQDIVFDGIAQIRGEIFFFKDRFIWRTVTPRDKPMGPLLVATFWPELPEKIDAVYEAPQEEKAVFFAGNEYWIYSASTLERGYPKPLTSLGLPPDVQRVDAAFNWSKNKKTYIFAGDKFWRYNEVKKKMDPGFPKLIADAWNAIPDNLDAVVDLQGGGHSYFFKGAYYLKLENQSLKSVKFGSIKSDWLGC
Summary of the method: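 Assay buffer 100 mM Tris-HCl, 100 mM NaCl, 10 mM CaCl2, pH 7.5. Activated MMP + inhibitor, 5 min RT; then methoxycoumarin peptide substrate, 4 μM final. Readout fluorescence; IC50 calculated.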

MMP-7 = target: T4, MMP-7 (Homo sapiens, UniProt P09237); assay: In vitro metalloprotease inhibition, pH 7.5 with 0.02% 2-mercaptoethanol; assay type: biochemical; conditions: selectively inhibit one or more of MMP-2, MMP-9 and MMP-13
T4 construct: made in house; host or cells: E. coli (clone a gift of Dr. Steven Shapiro, Washington University)
T4 sequence (P09237 95-267): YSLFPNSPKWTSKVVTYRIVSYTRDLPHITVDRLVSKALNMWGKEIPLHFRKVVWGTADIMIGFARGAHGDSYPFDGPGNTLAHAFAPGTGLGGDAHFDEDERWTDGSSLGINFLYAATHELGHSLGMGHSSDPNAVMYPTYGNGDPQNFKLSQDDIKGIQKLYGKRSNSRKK
Procedure: The compounds prepared in the manner described in the Examples above were assayed for activity by an in vitro assay. […] Briefly, 4-aminophenylmercuric acetate (APMA) or trypsin-activated MMPs were incubated with various concentrations of the inhibitor compound at room temperature for 5 minutes.
MMP-1 expressed in transfected HT-1080 cells was provided by Dr. Harold Welgus of Washington University, St. Louis, Mo. The enzyme was also activated using APMA and was then purified over a hydroxamic acid column. Dr. Welgus also provided transfected HT-1080 cells that expressed MMP-9. Transfected cells that expressed MMP-2 were provided by Dr. Gregory Goldberg, also of Washington University. Studies with MMP-7 were carried out at pH 7.5 in the presence of 0.02% 2-mercaptoethanol using conditions otherwise similar to those used for the other enzymes. […]
In the absence of inhibitor activity, a fluorogenic peptide was cleaved at the gly-leu peptide bond, separating the highly fluorogenic peptide from a 2,4-dinitrophenyl quencher, resulting in an increase of fluorescence intensity (excitation at 328 nm/emission at 415 nm). Inhibition was measured as a reduction in fluorescent intensity as a function of inhibitor concentration, using a Perkin Elmer L550 plate reader. The IC50 values were calculated from those values. […]

[1] = tested on: advanced, rapidly progressive, treatment-refractory solid tumor cancers; conditions: cited from earlier work

## Cn1cnc(S(=O)(=O)N2CCN(c3ccc(S(=O)(=O)C4(C(=O)NO)CCOCC4)cc3)CC2)c1 [Example 684]
MMP-13
  IC50: 60 nM
MMP-1
  IC50: > 10000 nM
MMP-2
  IC50: 1450 nM
MMP-7
  inhibition of MMP-7 compared with MMP-2, MMP-9 and MMP-13 (selectivity): substantially less inhibition

## CNC(=O)[C@@H](NC(=O)[C@H](CC(C)C)[C@H](O)C(=O)NO)C(C)(C)C [marimastat, Marimastat]
[1]; clinical trials in patients
  most common drug-related toxicity: musculoskeletal pain and stiffness
[1]; patients with colorectal, pancreatic, ovarian, prostate cancers
  cancer-specific antigens used as surrogate markers for biological activity: dose-related reduction in the rise of cancer-specific antigens

## N#Cc1cccc(S(=O)(=O)N2CCN(c3ccc(S(=O)(=O)C4(C(=O)NO)CCOCC4)cc3)CC2)c1 [Example 672]
MMP-13
  IC50: 6.7 nM
MMP-1
  IC50: > 10000 nM
MMP-2
  IC50: 60 nM
MMP-7
  inhibition of MMP-7 compared with MMP-2, MMP-9 and MMP-13 (selectivity): substantially less inhibition

## COc1cc(COC2CCN(c3ccc(S(=O)(=O)C4(C(=O)NO)CCOCC4)cc3)CC2)cc(OC)c1 [Example 178]
MMP-13
  IC50: 18.1 nM
MMP-1
  IC50: > 10000 nM
MMP-2
  IC50: 325 nM

## O=C(c1ccc(OC(F)(F)F)cc1)C1CCN(c2ccc(S(=O)(=O)C3(C(=O)NO)CCOCC3)cc2)CC1 [Example 726]
MMP-13
  IC50: 15.8 nM
MMP-1
  IC50: > 10000 nM
MMP-2
  IC50: 250 nM

## CCC(C)OCc1ccc(COC2CCN(c3ccc(S(=O)(=O)C4(C(=O)NO)CCOCC4)cc3)CC2)cc1 (stereo not shown) [Example 556]
MMP-13
  IC50: 4.5 nM
MMP-1
  IC50: > 10000 nM
MMP-2
  IC50: 170 nM

## O=C(NO)C1(S(=O)(=O)c2ccc(N3CCC(c4cccc5c4CCCC5)CC3)cc2)CCOCC1 [Example 473]
MMP-13
  IC50: 160 nM
MMP-1
  IC50: > 10000 nM
MMP-2
  IC50: 3300 nM

## O=C(NO)C1(S(=O)(=O)c2ccc(N3CCC(OCc4cccc(Cl)c4)CC3)cc2)CCOCC1 [Example 573]
MMP-13
  IC50: 11.4 nM
MMP-1
  IC50: > 10000 nM
MMP-2
  IC50: 235 nM

## O=C(NO)C1(S(=O)(=O)c2ccc(N3CCC(OCc4ccc(Cl)c(Cl)c4)CC3)cc2)CCOCC1 [Example 176]
MMP-13
  IC50: 4 nM
MMP-1
  IC50: > 10000 nM
MMP-2
  IC50: 250 nM

## CN(C)c1ccc(NC(=S)N2CCC(C(=O)NO)(S(=O)(=O)c3ccc(Oc4ccc(OC(F)(F)F)cc4)cc3)CC2)cc1 [Example 202]
MMP-13
  IC50: 0.4 nM
MMP-1
  IC50: > 10000 nM
MMP-2
  IC50: 0.2 nM

## CC(C)NC(=O)OC1CCN(c2ccc(S(=O)(=O)C3(C(=O)NO)CCOCC3)cc2)CC1 [Example 517]
MMP-13
  IC50: 14 nM
MMP-1
  IC50: > 10000 nM
MMP-2
  IC50: 1100 nM

## Cc1ccccc1N1CC2CC1CN2c1ccc(S(=O)(=O)C2(C(=O)NO)CCOCC2)cc1 (stereo not shown) [Example 494]
MMP-13
  IC50: 650 nM
MMP-1
  IC50: > 10000 nM
MMP-2
  IC50: 3300 nM

## O=C(NO)C1(S(=O)(=O)c2ccc(N3CCC(OCc4ccc(F)cc4)CC3)cc2)CCOCC1 [Example 164]
MMP-13
  IC50: 3.5 nM
MMP-1
  IC50: > 10000 nM
MMP-2
  IC50: 440 nM

## O=C(NO)C1(S(=O)(=O)c2ccc(N3CCC(Oc4ccccc4C(F)(F)F)CC3)cc2)CCOCC1 [Example 568]
MMP-13
  IC50: 120 nM
MMP-1
  IC50: > 10000 nM
MMP-2
  IC50: 4600 nM

## Cc1ccc(C(=O)C2CCN(c3ccc(S(=O)(=O)C4(C(=O)NO)CCOCC4)cc3)CC2)cc1F [Example 736]
MMP-13
  IC50: 0.9 nM
MMP-1
  IC50: > 10000 nM
MMP-2
  IC50: 145 nM

## O=C(NO)C1(S(=O)(=O)c2ccc(Oc3ccc(C(F)(F)F)cc3)cc2)CCN(c2ncccc2C(F)(F)F)CC1 [Example 375]
MMP-13
  IC50: 16.9 nM
MMP-1
  IC50: > 10000 nM
MMP-2
  IC50: 15.6 nM

## O=C(NO)C1(S(=O)(=O)c2ccc(OC3CN(S(=O)(=O)Cc4ccccc4)C3)cc2)CCOCC1 [Example 850]
MMP-13
  IC50: 4.5 nM
MMP-1
  IC50: > 10000 nM
MMP-2
  IC50: 150 nM
